From PMC11484942, “Rumicidins are a family of mammalian host-defense peptides plugging the 70S ribosome exit tunnel” (Nature Communications, 2024)

Experiments:
PBMC = assay: Cytokine response, multiplex xMAP; type: cell-based, human; conditions: 2 µM peptide, 24 h
Experimental: (§1) The acute monocytic leukemia THP-1 cell line (ATCC TIB-202) was cultured in the complete RPMI 1640 medium (Invitrogen) containing 10% FBS, 1× antibiotic-antimycotic solution (Invitrogen), and 0.05 mM β-mercaptoethanol, in the CO2-incubator (5% CO2, 37 °C). THP-1 cells were differentiated into proinflammatory macrophages (MΦ1) according to the previously reported protocol. Primary peripheral blood mononuclear cells (PBMC) collected from a healthy donor were purchased from ATCC (PCS-800-011), thawed, and seeded into a 96-well plate one day prior to the experiment at a density of 2 × 10^5 cells/well. Two different cell subpopulations (monocytes and T-/B-/NK-lymphocytes) were isolated from PBMC based on their adherence ability. Macrophages MΦ1 were washed out and seeded into 96-well plates at a density of 10^5 cells/well one day prior to the experiment. The next day, medium in each well was replaced by a fresh complete RPMI 1640 medium with or without 2 μM of a tested peptide (rumicidin-1 or LL-37). Cell cultures were kept in a CO2-incubator (5% CO2, 37 °C) for 24 h. Culture supernatants were collected 24 h later and stored at −70 °C degrees less than one week prior to the assessment of analytes. 26 analytes were measured at a protein level by multiplex xMAP technology using the MILLIPLEX MAP Human Cytokine/Chemokine Magnetic Bead Immunology Panel kit (HCYTOMAG-60K-27, Merck): eotaxin-1/CCL11, TGFα, GM-CSF, IFNα2, IFNγ, IL-10, IL-12p40, IL-12p70, IL-15, sCD40L, IL-17A, IL-1RA, IL-1α, IL-9, IL-1β, IL-2, IL-3, IL-4, IL-5, IL-6, IL-7, IL-8/CXCL8, IP-10/CXCL10, RANTES/CCL5, TNFα, TNFβ. Multiplex-based assay read-out was performed using the MAGPIX system (Merck) with the xPONENT 4.2 software (Merck) in accordance with the manufacturer’s instruction with overnight incubation of the samples with primary antibodies. The final analysis was carried out with the MILLIPLEX Analyst v5.1 software (Merck). Measurements were performed twice for each sample. The release of the analytes in control and experimental samples were compared by unpaired two-sample t-test using GraphPad Prism v.8.0.1. The p values ≤ 0.05 were considered significant.

[1] = tested on: macrophages MΦ1 (THP-1 derived); assay: Cytokine response, multiplex xMAP; type: cell-based, human; conditions: 2 µM peptide, 24 h
Experimental: as §1

Monocytes = assay: Cytokine response, multiplex xMAP; type: cell-based, human; conditions: 2 µM peptide, 24 h
Experimental: as §1

Caco-2 cells = assay: Cytokine response, multiplex xMAP; type: cell-based, human; conditions: 2 µM peptide, 24 h
E. coli 1057 WT = assay: microbe, parasite or virus in culture; type: cell-based, Escherichia coli; conditions: MHB + 0.9% NaCl
Experimental: Minimum inhibitory concentrations (MIC) were determined by broth microdilution assay based on Clinical and Laboratory Standards Institute (CLSI) guidelines using BSA in the growth medium to minimize AMP nonspecific adsorption[49]. Bacterial test cultures were grown in the Mueller-Hinton broth (MHB, Sigma) at 37 °C to mid-log phase and then diluted with the 2× MH medium supplemented with 1.8% NaCl (or without salt) so that to reach a final cell concentration of 10^6 CFU/mL. 50 µL of the obtained bacterial suspension were added to aliquots of 50 µL of the peptide solutions serially diluted with sterilized 0.1% bovine serum albumin (BSA) in 96-well flat-bottom polystyrene microplates (Eppendorf #0030730011). […] To verify MIC values, the respiratory activity of the bacteria was determined. Briefly, 5 µL of 0.5 mg/mL resazurin (Sigma) was added to the wells after 24 h (or after 48 h for M. smegmatis) of incubation, and the plate was incubated for additional 3 h. In some cases, MICs were determined in the Lysogeny Broth (LB) or Middlebrook 7H9 medium. The reduction of resazurin to resorufin was recorded. […] The results were expressed as the median values determined based on at least three independent experiments performed in triplicate.

**Q.** Which results are given for `CC[C@H](C)[C@H](NC(=O)[C@H](CCCCN)NC(=O)[C@H](CCC(=O)O)NC(=O)[C@H](CCCCN)NC(=O)[C@H](CO)NC(=O)[C@H](CCCCN)NC(=O)[C@H](CCCNC(=N)N)NC(=O)[C@H](Cc1ccccc1)NC(=O)[C@H](Cc1ccccc1)NC(=O)[C@H](CC(=O)O)NC(=O)CNC(=O)[C@H](CC(C)C)NC(=O)[C@@H](N)CC(C)C)C(=O)NCC(=O)N[C@@H](CCCCN)C(=O)N[C@@H](CCC(=O)O)C(=O)N[C@@H](Cc1ccccc1)C(=O)N[C@@H](CCCCN)C(=O)N[C@@H](CCCNC(=N)N)C(=O)N[C@H](C(=O)N[C@H](C(=O)N[C@@H](CCC(N)=O)C(=O)N[C@@H](CCCNC(=N)N)C(=O)N[C@H](C(=O)N[C@@H](CCCCN)C(=O)N[C@@H](CC(=O)O)C(=O)N[C@@H](Cc1ccccc1)C(=O)N[C@@H](CC(C)C)C(=O)N[C@@H](CCCNC(=N)N)C(=O)N[C@@H](CC(N)=O)C(=O)N[C@@H](CC(C)C)C(=O)N[C@H](C(=O)N1CCC[C@H]1C(=O)N[C@@H](CCCNC(=N)N)C(=O)N[C@H](C(=O)N[C@@H](CCC(=O)O)C(=O)N[C@@H](CO)C(=O)O)[C@@H](C)O)C(C)C)[C@@H](C)CC)C(C)C)[C@@H](C)CC` [LL-37]?
**A.** GM-CSF (PBMC): 0,66 pg/ml; IFNa2 (PBMC): 3,72 pg/ml; IFNg (PBMC): < 1.31 pg/mL; IL-1RA (PBMC): 62,83 pg/ml; IL-1a (PBMC): < 1.13 pg/mL; IL-1b (PBMC): < 2.88 pg/mL; IL-2 (PBMC): < 2.73 pg/mL; IL-3 (PBMC): < 3.02 pg/mL; IL-4 (PBMC): 38,61 pg/ml; IL-5 (PBMC): < 2.74 pg/mL; IL-6 (PBMC): < 2.42 pg/mL; IL-7 (PBMC): < 2.06 pg/mL; IL-8 (PBMC): 1591 pg/mL; IL-9 (PBMC): < 3.08 pg/mL; IL-10 (PBMC): < 1.47 pg/mL; IL-12p40 (PBMC): < 3.69 pg/mL; IL-12p70 (PBMC): 0,29 pg/ml; IL-15 (PBMC): < 2.08 pg/mL; IL-17A (PBMC): < 0.94 pg/mL; IP-10 (PBMC): 2236 pg/mL; RANTES (PBMC): 262,49 pg/ml; TGF-a (PBMC): < 2.64 pg/mL; TNFa (PBMC): 15,91 pg/ml; TNFb (PBMC): < 2.85 pg/mL; sCD40L (PBMC): 2,84 pg/ml; Eotaxin (PBMC; supernatant): 3,21 pg/ml; GM-CSF [1]: 1,32 pg/ml; IFNa2 [1]: 4,35 pg/ml; IFNg [1]: < 1.31 pg/mL; IL-1RA [1]: 20,52 pg/ml; IL-1a [1]: < 1.13 pg/mL; IL-1b [1]: 10,63 pg/ml; IL-2 [1]: < 2.73 pg/mL; IL-3 [1]: < 3.02 pg/mL; IL-4 [1]: 38,61 pg/ml; IL-5 [1]: < 2.74 pg/mL; IL-6 [1]: < 2.42 pg/mL; IL-7 [1]: < 2.06 pg/mL; IL-8 [1]: 1188 pg/mL; IL-9 [1]: < 3.08 pg/mL; IL-10 [1]: 6,13 pg/ml; IL-12p40 [1]: < 3.69 pg/mL; IL-12p70 [1]: 0,58 pg/ml; IL-15 [1]: 2,42 pg/ml; IL-17A [1]: < 0.94 pg/mL; IP-10 [1]: 282,01 pg/ml; RANTES [1]: 715,62 pg/ml; TGF-a [1]: < 2.64 pg/mL; TNFa [1]: 9,49 pg/ml; TNFb [1]: < 2.85 pg/mL; sCD40L [1]: 3,22 pg/ml; GM-CSF (Monocytes): 3,08 pg/ml; IFNa2 (Monocytes): 34,74 pg/ml; IFNg (Monocytes): 38,2 pg/ml; IL-1RA (Monocytes): 168,96 pg/ml; IL-1a (Monocytes): < 1.13 pg/mL; IL-1b (Monocytes): < 2.88 pg/mL; IL-2 (Monocytes): < 2.73 pg/mL; IL-3 (Monocytes): 3,38 pg/ml; IL-5 (Monocytes): < 2.74 pg/mL; IL-6 (Monocytes): < 2.42 pg/mL; IL-7 (Monocytes): 8,54 pg/ml; IL-8 (Monocytes): 755,68 pg/ml; IL-9 (Monocytes): < 3.08 pg/mL; IL-10 (Monocytes): 4,1 pg/ml; IL-12p40 (Monocytes): 17,59 pg/ml; IL-12p70 (Monocytes): 5,7 pg/ml; IL-15 (Monocytes): 4,8 pg/ml; IP-10 (Monocytes): 897,33 pg/ml; RANTES (Monocytes): 312,51 pg/ml; TGF-a (Monocytes): < 2.64 pg/mL; TNFa (Monocytes): 6,47 pg/ml; TNFb (Monocytes): < 2.85 pg/mL; sCD40L (Monocytes): 20,8 pg/ml; Eotaxin (Caco-2 cells): < 2.04 pg/mL; GM-CSF (Caco-2 cells): 0,45 pg/ml; IFNa2 (Caco-2 cells): 3,72 pg/ml; IFNg (Caco-2 cells): < 1.31 pg/mL; IL-1RA (Caco-2 cells): < 2.66 pg/mL; IL-1a (Caco-2 cells): < 1.13 pg/mL; IL-1b (Caco-2 cells): < 2.88 pg/mL; IL-2 (Caco-2 cells): < 2.73 pg/mL; IL-3 (Caco-2 cells): < 3.02 pg/mL; IL-4 (Caco-2 cells): 43,73 pg/ml; IL-5 (Caco-2 cells): < 2.74 pg/mL; IL-6 (Caco-2 cells): < 2.42 pg/mL; IL-7 (Caco-2 cells): < 2.06 pg/mL; IL-8 (Caco-2 cells): 3,19 pg/ml; IL-9 (Caco-2 cells): < 3.08 pg/mL; IL-10 (Caco-2 cells): < 1.47 pg/mL; IL-12p40 (Caco-2 cells): < 3.69 pg/mL; IL-12p70 (Caco-2 cells): 0,29 pg/ml; IL-15 (Caco-2 cells): < 2.08 pg/mL; IL-17A (Caco-2 cells): < 0.94 pg/mL; IP-10 (Caco-2 cells): 114,78 pg/ml; RANTES (Caco-2 cells): 1050 pg/mL; TGF-a (Caco-2 cells): < 2.64 pg/mL; TNFa (Caco-2 cells): < 2.85 pg/mL; TNFb (Caco-2 cells): < 2.85 pg/mL; sCD40L (Caco-2 cells): 2,12 pg/ml; MIC (E. coli 1057 WT): 2 µM
